Assay results as given in patent US4276285A, “Combinations of penicillanic acid 1,1-dioxide with 7-(D-2-[4-ethylpiperazin-2,3-dione-1-carboxamido]-2-[4-hydroxyphenyl]ace tamido)-3-([1-methyl-5-tetrazolyl]thiomethyl)-3-desacetoxymethylcephalosp oranic acid” (priority 1979, dated 1981).

Assays:
[1] = system: resistant Escherichia coli; assay: MIC alone and in combination against 30 strains of resistant Escherichia coli; type: cell-based
Protocol: The manner in which the compounds of the formula I increase the effectiveness of the compound of formula XXII and the pharmaceutically-acceptable salts thereof can be appreciated by reference to experiments in which the MIC of the compound of the formula XXII alone, and the compound of the formula I wherein R^1 is hydrogen alone, are measured. These MIC's are then compared with the MIC values obtained with a combination of the compound of formula XXII and the compound of the formula I, wherein R^1 is hydrogen. […] The MIC values of combinations are measured using the method described by Barry and Sabath in "Manual of Clinical Microbiology", edited by Lenette, Spaulding and Truant, 2nd edition, 1974, American Society of Microbiology.
The minimum inhibitory concentrations (MIC's) of penicillanic acid 1,1-dioxide (PA 1,1-dioxide) alone and 7-(D-2-[4-ethylpiperazine-2,3-dione-1-carboxamido]-2-[4-hydroxyphenyl]acetamido)-3-([1-methyl-5-tetrazolyl]thiomethyl)-3-desacetoxymethylcephalosporanic acid (T-1551) alone, against 30 strains of resistant Escherichia coli, were measured. These MIC's were then compared with the MIC values obtained with a combination of the two compounds. The results were as follows:
The MIC's were measured using the method recommended by the International Collaborative Study on Antibiotic Sensitivity Testing (Ericcson and Sherris, Acta. Pathologica et Microbiologica Scandivav, Supp. 217, Section B, 64-68 [1971]), which employed brain heart infusion agar and the inocular replicating device. Overnight growth tubes were diluted 10-fold for use as the standard inoculum. Twelve two-fold dilutions of the test compound were employed with initial concentration of the test drug being 200 mcg/ml. Single colonies were disregarded when reading plates after 18 hours at 37° C. […] The MIC's of combinations were measured using the method described by Barry and Sabath in "Manual of Clinical Microbiology", edited by Lenette, Spaulding and Truant, 2nd edition, 1974, American Society for Microbiology.

[2] = system: microbial beta-lactamases; assay: Inhibition of microbial beta-lactamases; type: biochemical; conditions: result in words

| Structure (SMILES) | MIC ([1]; alone, BHI agar, 18 hours at 37° C., read-out: Mode MIC of T-1551 alone) [µg/mL] | Mode MIC's of T-1551 & PA 1,1-Dioxide in Combination: T-1551 ([1]; in combination with PA 1,1-Dioxide (1.56)) | inhibition of microbial beta-lactamases [2] | Mode MIC's of T-1551 & PA 1,1-Dioxide in Combination: PA 1,1-Dioxide ([1]; in combination with T-1551 (1.56)) |
| --- | --- | --- | --- | --- |
| CCN1CCN(C(=O)N[C@@H](C(=O)N[C@@H]2C(=O)N3C(C(=O)O)=C(CSc4nnnn4C)CS[C@H]23)c2ccc(O)cc2)C(=O)C1=O [Example T-1551, 7-(D-2-[4-ethylpiperazine-2,3-dione-1-carboxamido]-2-[4-hydroxyphenyl]acetamido)-3-([1-methyl-5-tetrazolyl]thiomethyl)-3-desacetoxymethylcephalosporanic acid] | 100 | 1.56 | – | – |
| CC1(C)[C@H](C(=O)O)N2C(=O)C[C@H]2S1(=O)=O [Penicillanic Acid 1,1-Dioxide] | – | – | potent inhibitors of microbial beta-lactamases | 1.56 |
